Laboratory results published in PubChem BioAssay (NCI).
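Five compound concentrations were applied to cells in 96-well plates for 48 hours; endpoints were derived by simple linear interpolation of the resulting dose-response curve. GI50 marks 50% less growth. TGI denotes the concentration required for complete inhibition of growth.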

Tests used:
Experiment in all cases: DTP human tumour cell line panel, 48 h
[1] = system: 786-0 renal
[2] = system: A498 renal
[3] = system: A549 NSCLC
[4] = system: ACHN renal
[5] = system: BT-549 breast
[6] = system: CAKI-1 renal
[7] = system: CCRF-CEM leukemia
[8] = system: COLO 205 colon
[9] = system: DU-145 prostate
[10] = system: EKVX NSCLC
[11] = system: HCC-2998 colon
[12] = system: HCT-116 colon
[13] = system: HCT-15 colon
[14] = system: HL-60(TB) leukemia
[15] = system: HOP-62 NSCLC
[16] = system: HOP-92 NSCLC
[17] = system: HS 578T breast
[18] = system: HT29 colon
[19] = system: IGROV1 ovarian
[20] = system: KM12 colon
[21] = system: LOX IMVI melanoma
[22] = system: M14 melanoma
[23] = system: MALME-3M melanoma
[24] = system: MCF7 breast
[25] = system: MDA-MB-231 breast
[26] = system: MDA-MB-435
[27] = system: MOLT-4 leukemia
[28] = system: NCI-H226 lung
[29] = system: NCI-H23 lung
[30] = system: NCI-H460 lung
[31] = system: NCI-H522 lung
[32] = system: NCI/ADR-RES ovarian
[33] = system: OVCAR-3 ovarian
[34] = system: OVCAR-4 ovarian
[35] = system: OVCAR-5 ovarian
[36] = system: OVCAR-8 ovarian
[37] = system: PC-3 prostate
[38] = system: RPMI-8226 leukemia
[39] = system: RXF 393 renal
[40] = system: SF-268 CNS
[41] = system: SF-295 CNS
[42] = system: SF-539 CNS
[43] = system: SK-MEL-2 melanoma
[44] = system: SK-MEL-28 melanoma
[45] = system: SK-MEL-5 melanoma
[46] = system: SK-OV-3 ovarian
[47] = system: SN12C renal
[48] = system: SNB-19 CNS
[49] = system: SNB-75 CNS
[50] = system: SR leukemia
[51] = system: SW-620 colon
[52] = system: T-47D breast
[53] = system: TK-10 renal
[54] = system: U251 CNS
[55] = system: UACC-257 melanoma
[56] = system: UACC-62 melanoma
[57] = system: UO-31 renal

**Q.** Which results are given for O=C(O)c1cc2cc(O)ccc2[nH]1?
**A.** GI50 [1]: > 100 µM; TGI [1]: > 100 µM; GI50 [2]: > 100 µM; TGI [2]: > 100 µM; GI50 [3]: > 100 µM; TGI [3]: > 100 µM; GI50 [4]: > 100 µM; TGI [4]: > 100 µM; GI50 [5]: > 100 µM; TGI [5]: > 100 µM; GI50 [6]: > 100 µM; TGI [6]: > 100 µM; GI50 [7]: > 100 µM; TGI [7]: > 100 µM; GI50 [8]: > 100 µM; TGI [8]: > 100 µM; GI50 [9]: > 100 µM; TGI [9]: > 100 µM; GI50 [10]: > 100 µM; TGI [10]: > 100 µM; GI50 [11]: > 100 µM; TGI [11]: > 100 µM; GI50 [12]: > 100 µM; TGI [12]: > 100 µM; GI50 [13]: > 100 µM; TGI [13]: > 100 µM; GI50 [14]: > 100 µM; TGI [14]: > 100 µM; GI50 [15]: > 100 µM; TGI [15]: > 100 µM; GI50 [16]: > 100 µM; TGI [16]: > 100 µM; GI50 [17]: > 100 µM; TGI [17]: > 100 µM; GI50 [18]: > 100 µM; TGI [18]: > 100 µM; GI50 [19]: > 100 µM; TGI [19]: > 100 µM; GI50 [20]: > 100 µM; TGI [20]: > 100 µM; GI50 [21]: > 100 µM; TGI [21]: > 100 µM; GI50 [22]: > 100 µM; TGI [22]: > 100 µM; GI50 [23]: > 100 µM; TGI [23]: > 100 µM; GI50 [24]: > 100 µM; TGI [24]: > 100 µM; GI50 [25]: > 100 µM; TGI [25]: > 100 µM; GI50 [26]: > 100 µM; TGI [26]: > 100 µM; GI50 [27]: > 100 µM; TGI [27]: > 100 µM; GI50 [28]: > 100 µM; TGI [28]: > 100 µM; GI50 [29]: > 100 µM; TGI [29]: > 100 µM; GI50 [30]: > 100 µM; TGI [30]: > 100 µM; GI50 [31]: > 100 µM; TGI [31]: > 100 µM; GI50 [32]: > 100 µM; TGI [32]: > 100 µM; GI50 [33]: > 100 µM; TGI [33]: > 100 µM; GI50 [34]: > 100 µM; TGI [34]: > 100 µM; GI50 [35]: > 100 µM; TGI [35]: > 100 µM; GI50 [36]: > 100 µM; TGI [36]: > 100 µM; GI50 [37]: > 100 µM; TGI [37]: > 100 µM; GI50 [38]: > 100 µM; TGI [38]: > 100 µM; GI50 [39]: > 100 µM; TGI [39]: > 100 µM; GI50 [40]: > 100 µM; TGI [40]: > 100 µM; GI50 [41]: > 100 µM; TGI [41]: > 100 µM; GI50 [42]: > 100 µM; TGI [42]: > 100 µM; GI50 [43]: > 100 µM; TGI [43]: > 100 µM; GI50 [44]: > 100 µM; TGI [44]: > 100 µM; GI50 [45]: > 100 µM; TGI [45]: > 100 µM; GI50 [46]: > 100 µM; TGI [46]: > 100 µM; GI50 [47]: > 100 µM; TGI [47]: > 100 µM; GI50 [48]: > 100 µM; TGI [48]: > 100 µM; GI50 [49]: > 100 µM; TGI [49]: > 100 µM; GI50 [50]: > 100 µM; TGI [50]: > 100 µM; GI50 [51]: > 100 µM; TGI [51]: > 100 µM; GI50 [52]: > 100 µM; TGI [52]: > 100 µM; GI50 [53]: > 100 µM; TGI [53]: > 100 µM; GI50 [54]: > 100 µM; TGI [54]: > 100 µM; GI50 [55]: > 100 µM; TGI [55]: > 100 µM; GI50 [56]: > 100 µM; TGI [56]: > 100 µM; GI50 [57]: > 100 µM; TGI [57]: > 100 µM
